Key:
IFN-γ = IFN-γ production in PBMC (ELISA); assay type: cell-based; conditions: Homo sapiens, activator mab anti-CD3, 48 h, read-out: IFN-γ T-cell IC50
Procedure: (§1) Peripheral blood mononuclear cells (PBMC) were isolated from the blood of healthy donors by the Lymphoprep gradient method. 200000 PBMC/well were cultured in RPMI1640 culture medium containing 5% heat inactivated human serum ([…]). at 37° C. and 10% CO2 in 96 well flat bottom microtiter plates. Cultures were set up as triplicates including a control group. Solutions of PDE4 inhibitors were prepared in DMSO at 10^−2 M and diluted in culture medium. Control cultures were treated with concentrations of DMSO equivalent to the inhibitor concentrations.
(§2) The culture supernatants of three independent experiments were pooled and cytokine activity in the supernatant was measured with commercially available ELISA test kits.
(§3) The data were calculated as percent inhibition/stimulation of the control without the compound and the IC50 value or EC50 value in case of stimulation was determined thereof.

IL-2 = IL-2 production in PBMC (ELISA); assay type: cell-based; conditions: Homo sapiens, activator mab anti-CD3, 24 h, read-out: IL2 T-cell IC50
Procedure: as §1, §2, §3

TNF-α = TNF-α production in PBMC (ELISA); assay type: cell-based; conditions: Homo sapiens, activator LPS, 48 h, read-out: TNF-α macrophage IC50
Procedure: as §1, §2, §3

[1] = test system: T cells within the PBMC preparation; test: Effect of PDE4 inhibitors on T-cell proliferation (3H-thymidine incorporation, anti-CD3 stimulated PBMC); assay type: cell-based; conditions: Homo sapiens, 120 h, monoclonal antibody to CD3, 5 days, read-out: T-cell prol. IC50
Procedure: Peripheral blood mononuclear cells (PBMC) were isolated from the blood of healthy donors by the Lymphoprep gradient method. 200000 PBMC/well were cultured in RPMI1640 culture medium containing 5% heat inactivated human serum (AB pool) for 5 days at 37° C. and 10% CO2 in 96 well flat bottom microtiter plates. The T cells within the PBMC preparation were selectively stimulated with an monoclonal antibody to CD3. Cultures were set up as triplicates including a control group receiving no treatment. PDE4 inhibitors were dissolved in DMSO at 10^−2 M and diluted in culture medium. Control cultures were treated with DMSO equivalent to the inhibitor concentration. 18 hrs before the end of the assay, ^3H-thymidine was added to the cultures. The incorporation of radioactivity into the cells was then measured in a beta-counter.
The data of at least three independent experiments were calculated as percent inhibition of the control (mean ±SEM) without inhibitor.

IL-10 = IL-10 production in PBMC (ELISA); assay type: cell-based, human; conditions: activator LPS, 48 h, stimulation; for EC50: Homo sapiens, read-out: IL10 macrophage EC50
Procedure: as §1, §2, §3

IL-12 = IL-12 production in PBMC (ELISA); assay type: cell-based; conditions: Homo sapiens, activator SAC + IFNγ, 48 h, read-out: IL12 macrophage IC50
Procedure: as §1, §2, §3

Compound | IC50 (IFN-γ) [µM] | IC50 (IL-2) [µM] | IC50 (TNF-α) [µM] | IC50 [1] [µM] | EC50 (IL-10) [µM] | IC50 (IL-12) [µM] | IL10 macrophage EC50 (IL-10)
CCOC(=O)Nc1ccc(C(=O)N2CCCC(c3ccc(OC)c(OCC)c3)=N2)cc1 [EMD 125059] | 0.008 | 0.06 | 0.03 | 0.04 | 0.008 | – | –
COc1ccc(C2CNC(=O)C2)cc1OC1CCCC1 (stereo not drawn) [Rolipram, reference compound] | 1 | 0.7 | 0.6 | 0.3 | 0.05 | > 0.1 | –
CCOc1cc(C2=NN(Cc3ccc(NC(=O)c4cccnc4)cc3)C(=O)SC2)ccc1OC [EMD 95832] | 0.01 | 0.2 | 0.009 | 0.05 | 0.02 | 0.0005 | –
CCOc1cc(C2=NN(C(=O)c3ccc(NC(=O)c4ccc(OC)cc4)cc3)CCC2)ccc1OC [EMD 219901] | 0.005 | 0.003 | 0.002 | 0.007 | 0.001 | – | –
CCOc1cc(C2=NN(C(=O)c3ccc(NC(=O)c4cccnc4)cc3)CCC2)ccc1OC [EMD 125025] | 0.007 | 0.002 | 0.003 | 0.006 | – | – | no effect
CCOC(=O)Nc1ccc(CN2N=C(c3ccc(OC)c(OCC)c3)CCC2=O)cc1 [EMD 94360] | 0.05 | 0.3 | 0.03 | 0.02 | 0.001 | 0.006 | –
